# Measured values: patent US20190300885A1, “A NOVEL ROLE FOR TERMINAL RNA URIDYLATION AND RNA TURNOVER IN ONCOGENESIS” (Children's Medical Center Corporation, priority 2016, published 2019)
# Entries after “also recorded” stand apart in the source; their conditions may differ.
# Columns and labels:
# HCT116 cells [1] = test: Growth/viability of wild-type vs TUTase knockout HCT116 cells under increasing bortezomib concentrations; type: cell-based, human; details: HCT116, ZCCHC6 knockout vs WT
# Source text: FIG. 16. TUTase loss has a downstream impact on protein turnover. Top, the relative rates of global mRNA translation as measured by the OP-Puromycin fluorescent assay are shown. siNC=negative control siRNA; siZ6=siZCCHC6. Error bars indicate SEM (n=3); *P<0.05. Bottom, growth curves of HCT116 cells after CRISPR/Cas9-mediated knockout using a ZCCHC6-targeting sgRNA (KO) or a GFP-targeting control sgRNA (WT) under treatment with different concentrations of bortezomib are shown.
# Given that TUTases affect mRNA turnover, it was also surmised that they may have a downstream effect on protein turnover. To address this hypothesis, the global rate of translation in TUTase knockdown versus control HCT116 cells was measured using the OP-Puromycin method. […] In addition, we treated wild-type and TUTase knockout HCT116 cells with increasing concentrations of bortezomib, an inhibitor of the proteasome and thus protein decay (FIG. 16).
# HCT116 cells [2] = test: Growth curves of wild-type vs ZCCHC6 knockout HCT116 cells under increasing drug concentrations; type: cell-based, human; details: HCT116, CRISPR/Cas9 ZCCHC6 knockout (KO) vs GFP-sgRNA control (WT)
# Source text: FIGS. 5A-5B. TUTase loss sensitizes cancer cells to disruption of RNA metabolism. […] Error bars indicate SEM (n=3); *P<0.05, **P<0.01.
# Given the observed phenotypes, whether there are conditions that specifically sensitize cancer cells to TUTase loss was examined. In particular, since TUTases have been associated with RNA turnover, it was surmised that they may play an especially important role in the context of perturbed RNA metabolism. To address this hypothesis, small molecule agents that are known to cause DNA/RNA damage and thus impair RNA quality (doxorubicin, cisplatin, etoposide), as well as ones that inhibit nucleotide synthesis and thereby limit the pool of available nucleotides in the cell (5-fluorouracil and hydroxyurea) were selected, and wild-type and ZCCHC6 knockout HCT116 cells were treated with increasing concentrations of each agent (FIG. 5A). […] 5-FU has been specifically shown to target the RNA exosome complex, which may explain its differential activity from hydroxyurea in the experiments.
Compound,effect on cell viability in TUTase knockout vs wild-type cells (HCT116 cells [1]),differential dose-dependent growth response of ZCCHC6 knockout vs wild-type cells (HCT116 cells [2])
CC(C)C[C@H](NC(=O)[C@H](Cc1ccccc1)NC(=O)c1cnccn1)B(O)O [bortezomib],stronger in the TUTase knockout cells,
O=c1[nH]cc(F)c(=O)[nH]1 [5-fluorouracil],,reproducibly stronger effect on the knockout cells; also recorded: significantly stronger inhibitory effect on cells depleted of TUTase
N.N.[Cl][Pt][Cl] [cisplatin],,only 5-fluorouracil (5-FU) yielded a differential dose-dependent response
COc1cccc2c1C(=O)c1c(O)c3c(c(O)c1C2=O)C[C@@](O)(C(=O)CO)C[C@@H]3O[C@H]1C[C@H](N)[C@H](O)[C@H](C)O1 [doxorubicin],,only 5-fluorouracil (5-FU) yielded a differential dose-dependent response
COc1cc([C@@H]2c3cc4c(cc3[C@@H](O[C@@H]3O[C@@H]5CO[C@@H](C)O[C@H]5[C@H](O)[C@H]3O)[C@H]3COC(=O)[C@H]23)OCO4)cc(OC)c1O [etoposide],,only 5-fluorouracil (5-FU) yielded a differential dose-dependent response
